Data as given in patent publication US20070059785A1, “Biomarkers in cancer” (SMITHKLINE BEECHAM CORPORATION, priority 2003, published 2007).
“Also recorded” adds a separate entry of the source.

Tests used:
[1] = tested on: Erk1/2; assay: Western blot of p-Erk1/2 in HN5 cells; format: cell-based, human; conditions: for p-Erk1/2: HN5, exponentially growing, 72 h
Procedure: (§1) The erbB2 overexpressing human breast adenocarcinoma cell line, BT474, was obtained from the American Type Culture Collection (Rockville, M, USA). […] The EGFR overexpressing LICR-LON-HN5 head and neck carcinoma cell line, HN5, was kindly provided by Helmout Modjtahedi at the Institute of Cancer Research, Surrey, U.K.
(§2) For IP Western blots, equivalent amounts of protein were precleared with Protein G Plus/Protein A agarose overnight at 4° C. Precleared lysates were then incubated overnight at 4° C. with specific antibodies. Immune complexes were precipitated with Protein G Plus/Protein A agarose beads, washed in RIPA buffer and then boiled in sample loading buffer. Steady state levels of total Erk1/2 and activated Erk1/2 (p-Erk) as well as total AKT protein and activated AKT (p-AKT) protein were assessed by Western blot. […] Proteins were transferred to Immobilon-P or nitrocellulose membranes. Efficiency and equal loading of proteins was evaluated by Ponceau S staining. Membranes were blocked for 1 hr in TBS (25 mM Tris-HCl, pH 7.4, 150 mM NaCl, 2.7 mM KCl) containing 4% (w/v) lowfat milk or 3% BSA (w/v). Membranes were then probed with specific antibodies recognizing target proteins. Proteins were visualized with the SUPERSIGNAL® West Femto Maximum sensitivity substrate kit (Pierce).
Cell lysates were prepared and total Erk1/2 and activated Erk1/2 (p-Erk1/2) were assessed by Western blot.

[2] = tested on: AKT; assay: Western blot of p-AKT in HN5 cells; format: cell-based, human; conditions: HN5, 5 μM, 24 h serum-free
Procedure: as §1, §2

[3] = tested on: Erk1/2; assay: Western blot of p-Erk1/2 in Hb4a cells; format: cell-based, human; conditions: 5 μM, 72 h, not reversed by EGF
Procedure: (§3) The EGFR overexpressing LICR-LON-HN5 head and neck carcinoma cell line, HN5, was kindly provided by Helmout Modjtahedi at the Institute of Cancer Research, Surrey, U.K.
as §2
(§4) Steady state levels of activated erbB2 and EGFR (p-Tyr/ErbB2 and p-Tyr/EGFR); total erbB2 and EGFR; activated Erk1/2 (p-Erk1/2) and total Erk1/2 were assessed by either IP Western or Western blot.

[4] = tested on: Erk1/2; assay: BT474 tumor xenograft, p-Erk1/2 and total Erk1/2 by Western blot; format: in vivo, C.B-17 SCID mice
Procedure: (§5) The tumor implant was removed after the final treatment dose. Activated receptor (p-Tyr/ErbB-2) was assessed by IP Western blot and total ErbB-2 steady state protein (ErbB-2), total Erk1/2 and activated Erk1/2 (p-Erk1/2) were assessed by Western blot loading equal amounts of protein from tumor biopsies.
Cell extracts were prepared by homogenization as described for HN5 xenografts.
as §5, with “BT474” for “The”, “xenografts (subcutaneous) were established as described in Materials and Methods. […] Controls were treated with vehicle alone. […]” for “implant was removed after the final treatment dose.”

[5] = tested on: Erk1/2; assay: Clinical tumor biopsies, localization of total Erk1/2 by IHC; format: in vivo, human; conditions: patient 361, Day 21; baseline exclusively intra-nuclear; data not shown
Description: Upon activation, p-Erk1/2 relocates to the nucleus where it regulates transcription of a variety of genes involved in tumor growth, adhesion, and angiogenesis.

[6] = Plasma concentration in patients; format: in vivo, human; conditions: oral once a day
[7] = tested on: AKT; conditions: S1 cells; not reversed by EGF; data of PCT/US03/12739; cited from earlier work
[8] = target: T1, erbB2 (Homo sapiens, UniProt P04626); assay: IP Western blot of activated erbB2 (p-Tyr/erbB2) in S1 cells; format: cell-based; set-up: endogenous in cells; conditions: 72 h
T1 sequence (P04626 23-1255): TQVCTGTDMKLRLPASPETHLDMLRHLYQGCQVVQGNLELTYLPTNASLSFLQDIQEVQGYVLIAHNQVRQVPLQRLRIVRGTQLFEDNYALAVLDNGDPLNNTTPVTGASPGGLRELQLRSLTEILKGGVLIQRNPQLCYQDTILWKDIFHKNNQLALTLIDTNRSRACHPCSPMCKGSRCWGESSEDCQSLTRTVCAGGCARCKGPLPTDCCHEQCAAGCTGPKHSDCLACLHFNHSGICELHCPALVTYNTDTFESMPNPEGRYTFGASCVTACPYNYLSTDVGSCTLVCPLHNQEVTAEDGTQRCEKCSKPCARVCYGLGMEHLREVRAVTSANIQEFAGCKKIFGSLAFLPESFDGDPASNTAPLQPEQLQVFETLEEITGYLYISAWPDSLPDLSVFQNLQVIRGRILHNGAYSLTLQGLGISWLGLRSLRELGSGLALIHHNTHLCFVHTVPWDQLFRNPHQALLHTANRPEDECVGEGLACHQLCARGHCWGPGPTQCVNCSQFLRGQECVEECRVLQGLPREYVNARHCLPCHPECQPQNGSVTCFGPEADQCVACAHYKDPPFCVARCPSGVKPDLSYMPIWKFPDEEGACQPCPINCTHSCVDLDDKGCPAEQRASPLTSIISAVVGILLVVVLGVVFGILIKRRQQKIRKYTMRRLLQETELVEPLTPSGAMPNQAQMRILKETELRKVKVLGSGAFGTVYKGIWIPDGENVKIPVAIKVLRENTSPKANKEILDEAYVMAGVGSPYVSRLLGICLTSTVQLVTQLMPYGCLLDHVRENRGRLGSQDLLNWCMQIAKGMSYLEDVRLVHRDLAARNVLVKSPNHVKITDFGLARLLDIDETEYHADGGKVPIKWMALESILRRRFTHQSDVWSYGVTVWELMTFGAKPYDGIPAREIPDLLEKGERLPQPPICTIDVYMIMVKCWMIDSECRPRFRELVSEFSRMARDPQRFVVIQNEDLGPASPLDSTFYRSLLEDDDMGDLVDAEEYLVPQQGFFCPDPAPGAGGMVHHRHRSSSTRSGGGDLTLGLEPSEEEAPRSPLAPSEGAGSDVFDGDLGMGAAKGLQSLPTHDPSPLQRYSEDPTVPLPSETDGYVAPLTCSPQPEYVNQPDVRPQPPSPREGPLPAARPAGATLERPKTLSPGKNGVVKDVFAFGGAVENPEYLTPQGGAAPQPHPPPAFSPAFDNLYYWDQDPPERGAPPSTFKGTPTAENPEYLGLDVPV
Procedure: as §1, with “FIG. 1. […] The erbB2” for “The erbB2”
Cell cultures were maintained in a humidified atmosphere of 5% CO2 at 37° C.
(§6) Protein concentrations were determined using a modification of the Bradford method (Bio-Rad Laboratory).
as §2, with “Proteins were visualized with the SUPERSIGNAL® West Femto Maximum sensitivity substrate kit (Pierce).” left out

[9] = target: T1, erbB2; assay: IP Western/Western blot of p-Tyr/erbB2 and total erbB2 in Hb4a cells; format: cell-based; set-up: endogenous in cells; host or cells: Hb4a; conditions: 5 μM, 72 h, not reversed by EGF
Procedure: as §3, §6
as §2, with “Proteins were visualized with the SUPERSIGNAL® West Femto Maximum sensitivity substrate kit (Pierce).” left out
as §4

[10] = target: T1, erbB2; assay: Clinical tumor biopsies, total erbB2 by IHC
Description: (§7) All subjects provided written informed consent.
“erbB2” refers to total erbB2 as measured by immunohistochemistry and reported in OD;

[11] = target: T1, erbB2; assay: Clinical tumor biopsies, erbB2 p-tyr by IHC; conditions: patient 361, 1200 mg/day, Day 21, data not shown
[12] = tested on: pAKT; assay: Clinical tumor biopsies, p-AKT by quantitative IHC
Description: DAB (Dako) was used as the chromogen.
“pAKT” refers to phosphorylated AKT as measured by immunohistochemistry and reported in OD;

[13] = tested on: cyclin D1; assay: Clinical tumor biopsies, cyclin D1 by quantitative IHC
Description: as §7
“Cyclin D1” refers to total cyclin D1 present as measured by immunohistochemistry and reported by OD;

[14] = tested on: p-Erk1/2; assay: Clinical tumor biopsies, p-ERK index by quantitative IHC; conditions: patient 364, head and neck cancer, 1600 mg/day, Day 21
Procedure: DAB (Dako) was used as the chromogen.
To quantify changes in Erk1/2 activation state, a p-Erk index was established for each biopsy. The p-Erk index was the product of the percentage of cells staining positive for p-Erk1/2 in the tissue section and the OD value for p-Erk1/2 immunoreactivity. Investigators preparing and analyzing tissue sections were blinded to both patient tumor type and response to therapy.
“pERK index” is calculated by multiplying the percentage of cells staining positive for p-Erk and the optical density (OD) score, ×100;

Question: Which “downstream p-Erk1/2” value ([1]; HN5, 5 μM, 24 h serum-free, not reversed by EGF) does the source give for `CS(=O)(=O)CCNCc1ccc(-c2ccc3ncnc(Nc4ccc(OCc5cccc(F)c5)c(Cl)c4)c3c2)o1` [GW572016, N-{3-Chloro-4-[(3-fluorobenzyl)oxy]phenyl}-6-[5-({[2-(methylsulfonyl)ethyl]amino}methyl)-2-furyl]-4-quinazolinamine] here?
Answer: Its value is “inhibited”.

Question: And the “total Erk1/2 steady state protein levels” value ([1]; HN5, 72 h, GW572016 0.5 or 1 μM, Herceptin 10 μg/ml)?
Answer: The value was “Neither Herceptin™ nor GW572016 reduced”.

Question: What about the p-Erk1/2 ([1]; 500 nM) of the same molecule?
Answer: Its p-Erk1/2 is “inhibited”.

Question: And the p-Erk1/2 ([1]; 1 μM)?
Answer: Its p-Erk1/2 is “inhibited”.

Question: And the p-AKT [2]?
Answer: The p-AKT was “inhibited p-AKT in HN5 cells, the effect was smaller than in erbB2-overexpressing tumor cells”.

Question: What about the “baseline amount of p-Erk” value [3] of the same molecule?
Answer: Its value is “reduced; also recorded: decreased”.

Question: And the “total Erk1/2 steady state protein levels” value ([4]; 100 mg/kg)?
Answer: The value was “without effects”.

Question: What about the p-Erk1/2 ([4]; 100 mg/kg oral twice daily, five doses) of the same molecule?
Answer: Its p-Erk1/2 is “inhibited; also recorded: decreased”.

Question: And the “localization of total Erk1/2 staining” value [5]?
Answer: The value was “almost entirely cytoplasmic”.

Question: What about the “time by which steady state plasma concentrations were achieved” value [6] of the same molecule?
Answer: The value was no more than 21 days.

Question: And the “baseline phosphorylation of AKT” value [7]?
Answer: The value was “inhibits”.

Question: What about the “inhibition of erbB2 tyrosine phosphorylation (p-Tyr/erbB2)” value ([8]; 500 nM) of the same molecule?
Answer: The value was “Partial inhibition”.

Question: What about the “inhibition of erbB2 tyrosine phosphorylation (p-Tyr/erbB2)” value ([8]; 2.5 μM) of the same molecule?
Answer: Its value is “complete inhibition”.

Question: What about the “baseline amount of p-Tyr/erbB2” value [9] of the same molecule?
Answer: The value was “reduced; also recorded: decreased”.

Question: And the “total erbB2 protein” value ([10]; patient 361, 1200 mg/day)?
Answer: The value was “no effect”.

Question: And the ErbB2 ([10]; patient 425, inflammatory breast cancer, 1200 mg/d ditosylate salt, day 21 (day 0: 62))?
Answer: The ErbB2 was 68 OD.

Question: And the erbB2 p-tyr [11]?
Answer: The erbB2 p-tyr was “had not decreased”.

Question: And the “p-AKT OD” value ([12]; patient 361, breast, 1200 mg/d, day 21 (day 0: 36))?
Answer: The value was 24 OD.

Question: And the “p-AKT OD” value ([12]; patient 362, adenocarcinoma unknown primary, 900 mg/d, day 21 (day 0: 61))?
Answer: Its value is 81 OD.

Question: What about the “p-AKT OD” value ([12]; patient 363, sarcoma, 500 mg/d, day 21 (day 0: 19)) of the same molecule?
Answer: The value was 32 OD.

Question: And the “reduction of p-AKT” value ([12]; patient 364, 1600 mg/day, Day 21)?
Answer: Its value is 16%.

Question: And the “p-AKT OD” value ([12]; patient 364, head & neck, 1600 mg/d, day 21 (day 0: 51))?
Answer: The value was 43 OD.

Question: And the “p-AKT OD” value ([12]; patient 366, ovarian, 900 mg/d, day 21 (day 0: 22), aberrant staining, not considered valid)?
Answer: Its value is 47 OD.

Question: And the “p-AKT OD” value ([12]; patient 367, adenocarcinoma unknown primary, 650 mg/d, day 21 (day 0: 35))?
Answer: The value was 25 OD.

Question: What about the “p-AKT OD” value ([12]; patient 369, head & neck, 1200 mg/d, day 21 (day 0: 24)) of the same molecule?
Answer: The value was 7 OD.

Question: And the “p-AKT OD” value ([12]; patient 371, breast, 900 mg/d, day 21 (day 0: 36))?
Answer: Its value is 33 OD.

Question: What about the “p-AKT OD” value ([12]; patient 372, breast, 1200 mg/d, day 21 (day 0: 48)) of the same molecule?
Answer: Its value is 30 OD.

Question: What about the pAKT ([12]; patient 425, inflammatory breast cancer, 1200 mg/d ditosylate salt, day 21 (day 0: 85)) of the same molecule?
Answer: Its pAKT is 26 OD.

Question: What about the “intensity of pAkt staining, particularly in the nuclei” value ([12]; patient 425, post-treatment tumor sample, IHC, results not shown) of the same molecule?
Answer: Its value is “greatly reduced”.

Question: What about the “reduction of cyclin D1 protein expression” value ([13]; patient 361, 1200 mg/day, d 21) of the same molecule?
Answer: The value was 90%.

Question: What about the “cyclin D1 OD” value ([13]; patient 361, breast, 1200 mg/d, day 21 (day 0: 31)) of the same molecule?
Answer: The value was 3 OD.

Question: And the “cyclin D1 OD” value ([13]; patient 362, adenocarcinoma unknown primary, 900 mg/d, day 21 (day 0: 26))?
Answer: Its value is 37 OD.

Question: And the “cyclin D1 OD” value ([13]; patient 363, sarcoma, 500 mg/d, day 21 (day 0: 1))?
Answer: Its value is 12 OD.

Question: What about the “reduction of cyclin D1 expression” value ([13]; patient 364, 1600 mg/day, 21 days of therapy) of the same molecule?
Answer: The value was 50%.

Question: What about the “cyclin D1 OD” value ([13]; patient 364, head & neck, 1600 mg/d, day 21 (day 0: 66)) of the same molecule?
Answer: The value was 33 OD.

Question: What about the “cyclin D1 OD” value ([13]; patient 367, adenocarcinoma unknown primary, 650 mg/d, day 21 (day 0: 46)) of the same molecule?
Answer: The value was 39 OD.

Question: What about the “cyclin D1 OD” value ([13]; patient 369, head & neck, 1200 mg/d, day 21 (day 0: 39)) of the same molecule?
Answer: The value was 22 OD.

Question: What about the “cyclin D1 OD” value ([13]; patient 371, breast, 900 mg/d, day 21 (day 0: 42)) of the same molecule?
Answer: The value was 10 OD.

Question: What about the “cyclin D1 OD” value ([13]; patient 372, breast, 1200 mg/d, day 21 (day 0: 20)) of the same molecule?
Answer: Its value is 4 OD.

Question: And the “Cyclin D1” value ([13]; patient 425, inflammatory breast cancer, 1200 mg/d ditosylate salt, day 21 (day 0: 19))?
Answer: The value was 12 OD.

Question: What about the “decrease in p-Erk1/2” value [14] of the same molecule?
Answer: Its value is greater than 90%.
